# Several values for one entry are separate records, joined by “and”; a condition that tells them apart may be missing. Identical values can stand only once. Activity calls are given as the source filed them.
# Experiments:
# [1] = molecular target: FAD-linked sulfhydryl oxidase ALR (Homo sapiens, UniProt P55789); experiment: ALR-catalysed DTT oxidation blockers – biochemical, H2O2 detection, luminescence, cherry-pick, dose response (AID 493248)
# [2] = blockers of HIV-1 envelope-mediated cell-cell fusion – cherry-pick, dose response (AID 652057); assay type: functional, cell-based
# [3] = blockers of HIV-1 ZM109 envelope-driven cell-cell fusion – HeLa effector, CEM target cells, luciferase, cherry-pick, dose response (AID 652058); assay type: functional, cell-based;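 also: luciferase signal from HIV-1 Env mediated cell-cell fusion of effector and target cells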
# [4] = off-target signal loss in HeLa-CEM21 co-culture – HeLa F-luc CTL cells, cherry-picked, counter-screen for HIV-1 Env fusion inhibitor project, dose response (AID 652040); assay type: functional, cell-based;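 also: potency for signal decrease marking cytotoxic or nonspecific inhibition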
# [5] = HIV-1 AD8 envelope cell-cell fusion blockers – cherry-pick, dose response (AID 652062); assay type: functional, cell-based;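 also: luciferase signal from cell-cell fusion driven by HIV-1 clade B AD8 Env; potency is for inhibitors of fusion seen as a drop in luminescence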
# Fatty acid synthase = Fatty acid synthase (Homo sapiens, UniProt P49327); experiment: inhibition of human FAS-TE enzyme activity – biochemical, kinetic fluorescence intensity, dose response (AID 624326); assay type: functional;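 also: rate of fluorescence rise from hydrolysis of a fluorogenic O-methyl fluorescein ester substrate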
# [6] = molecular target: T1, DNA repair protein RAD52 homolog (Homo sapiens, UniProt P43351); assay type: functional, biochemical
# T1 sequence (P43351 whole entry): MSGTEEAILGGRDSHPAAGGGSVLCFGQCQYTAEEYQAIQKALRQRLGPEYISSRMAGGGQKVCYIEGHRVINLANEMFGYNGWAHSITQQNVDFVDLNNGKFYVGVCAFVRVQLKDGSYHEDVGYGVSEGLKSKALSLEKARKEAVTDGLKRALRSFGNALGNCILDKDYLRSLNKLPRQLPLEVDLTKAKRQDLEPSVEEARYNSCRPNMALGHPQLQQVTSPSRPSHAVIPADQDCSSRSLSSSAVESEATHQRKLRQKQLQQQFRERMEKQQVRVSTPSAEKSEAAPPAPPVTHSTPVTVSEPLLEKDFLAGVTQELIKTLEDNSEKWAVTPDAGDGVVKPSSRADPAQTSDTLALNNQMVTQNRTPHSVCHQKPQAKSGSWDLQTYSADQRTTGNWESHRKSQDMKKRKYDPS
# [7] = molecular target: T2, Heat shock factor protein 1 (Mus musculus, UniProt P38532); experiment: enhancement of HSF1-driven luciferase signal – cell-based, NIH3T3, luminescence, dose retest, confirmation (AID 435004); assay type: functional;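 also: stress induced by proteasome inhibitor MG132 added 30 min after compound; luciferase reporter driven by HSF1 response element in NIH3T3 cells; actives raise luminescence as potentiators of the MG132 stress response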
# T2 sequence (P38532 whole entry): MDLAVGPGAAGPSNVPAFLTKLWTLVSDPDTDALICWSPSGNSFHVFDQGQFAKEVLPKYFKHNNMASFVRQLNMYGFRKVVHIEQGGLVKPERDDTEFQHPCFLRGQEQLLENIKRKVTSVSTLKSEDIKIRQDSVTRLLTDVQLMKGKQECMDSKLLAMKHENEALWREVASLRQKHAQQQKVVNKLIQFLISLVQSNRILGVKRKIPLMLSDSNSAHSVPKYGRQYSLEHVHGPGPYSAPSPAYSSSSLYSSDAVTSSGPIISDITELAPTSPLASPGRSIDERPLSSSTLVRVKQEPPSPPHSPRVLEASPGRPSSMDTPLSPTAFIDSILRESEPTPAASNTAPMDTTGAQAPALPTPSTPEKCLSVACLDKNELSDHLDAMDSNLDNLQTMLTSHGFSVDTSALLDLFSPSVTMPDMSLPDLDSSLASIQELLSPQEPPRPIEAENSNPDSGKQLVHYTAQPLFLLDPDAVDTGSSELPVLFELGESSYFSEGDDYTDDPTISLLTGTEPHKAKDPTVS
# [8] = molecular target: Induced myeloid leukemia cell differentiation protein Mcl-1 (Homo sapiens, UniProt Q07820); assay type: functional
# [9] = system: Streptococcus sp. 'group A'; experiment: Streptococcus pyogenes SK(-)GAS viability under kanamycin – luminescence, BacTiterGlo, confirmation, counter-screen for streptokinase expression inhibitor project, dose response (AID 1900); assay type: functional, organism-based
# Streptokinase A = molecular target: T3, Streptokinase A (Streptococcus pyogenes serotype M1, UniProt P10520); experiment: viability-normalized secreted streptokinase activity reduction – plasminogen activation absorbance, OD405, dose response (AID 1914); assay type: functional, Streptococcus pyogenes M1 GAS;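 also: secreted streptokinase activity via plasminogen activation per viability signal from cell pellet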
# T3 sequence (P10520 whole entry): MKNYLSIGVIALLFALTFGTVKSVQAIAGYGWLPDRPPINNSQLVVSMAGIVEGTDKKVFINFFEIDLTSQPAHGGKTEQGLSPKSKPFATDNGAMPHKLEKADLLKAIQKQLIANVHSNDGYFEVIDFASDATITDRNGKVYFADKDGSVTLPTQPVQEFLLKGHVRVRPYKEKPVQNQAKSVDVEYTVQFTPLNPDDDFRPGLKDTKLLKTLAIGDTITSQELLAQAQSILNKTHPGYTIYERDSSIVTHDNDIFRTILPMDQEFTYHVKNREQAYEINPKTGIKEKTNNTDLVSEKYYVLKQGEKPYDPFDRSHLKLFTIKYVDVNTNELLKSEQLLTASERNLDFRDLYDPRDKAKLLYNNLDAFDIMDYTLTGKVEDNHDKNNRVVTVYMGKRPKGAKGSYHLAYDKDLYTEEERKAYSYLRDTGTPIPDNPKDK
# Streptococcus = experiment: GAS UMAA2166 growth inhibition – luminescence, BacTiterGlo, counter-screen for streptokinase expression inhibitor project, dose response (AID 1915); assay type: functional, organism-based;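 also: potency for reduction of bacterial viability or growth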
# [10] = reduction of Shn3 3'UTR-driven luciferase in osteoblasts – cell-based, Clone20 osteoblasts, firefly luciferase, cherry-picked, dose response (AID 624132); assay type: functional;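 also: firefly luciferase luminescence from reporter carrying the Shn3 3'UTR in osteoblasts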
# Vero = experiment: cells; assay type: functional; settings: Chlorocebus sabaeus
# [11] = Luminescence Cell-Based Dose Retest to Confirm Inhibitors of Cancer Stem Cells. [Related pubchem assays (depositor defined):AID2717, AID2721]; assay type: functional; settings: Homo sapiens
# Cytochrome P450 2C19 = Cytochrome P450 2C19 (Homo sapiens, UniProt P33261); experiment: Cytochrome panel assay with activity outcomes. Panel member name: p450-cyp2c19 Compounds with AC50 equal or less than 10 uM are considered active; assay type: functional; settings: read-out: AC50
# Cytochrome P450 2D6 = Cytochrome P450 2D6 (Homo sapiens, UniProt P10635);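 also: CYP2D6 member of a cytochrome P450 panel assay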
# Cytochrome P450 2C9 = Cytochrome P450 2C9 (Homo sapiens, UniProt P11712)
# H9c2 = experiment: cells; assay type: functional, cell-based; settings: Rattus norvegicus, H9c2, Myocardium;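 also: confirmatory concentration-response retest of ultra-high-throughput screening hits for modulation of myocardial damage; cell death induced by hydrogen peroxide oxidative stress; compound pretreatment for 60 min then peroxide exposure for 2 h; potency is for protecting the cells against peroxide damage rather than for killing them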
# Cytochrome P450 1A2 = molecular target: T4, Cytochrome P450 1A2 (Homo sapiens, UniProt P05177);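 also: PubChem cytochrome P450 panel assay, CYP1A2 panel member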
# T4 sequence (P05177 whole entry): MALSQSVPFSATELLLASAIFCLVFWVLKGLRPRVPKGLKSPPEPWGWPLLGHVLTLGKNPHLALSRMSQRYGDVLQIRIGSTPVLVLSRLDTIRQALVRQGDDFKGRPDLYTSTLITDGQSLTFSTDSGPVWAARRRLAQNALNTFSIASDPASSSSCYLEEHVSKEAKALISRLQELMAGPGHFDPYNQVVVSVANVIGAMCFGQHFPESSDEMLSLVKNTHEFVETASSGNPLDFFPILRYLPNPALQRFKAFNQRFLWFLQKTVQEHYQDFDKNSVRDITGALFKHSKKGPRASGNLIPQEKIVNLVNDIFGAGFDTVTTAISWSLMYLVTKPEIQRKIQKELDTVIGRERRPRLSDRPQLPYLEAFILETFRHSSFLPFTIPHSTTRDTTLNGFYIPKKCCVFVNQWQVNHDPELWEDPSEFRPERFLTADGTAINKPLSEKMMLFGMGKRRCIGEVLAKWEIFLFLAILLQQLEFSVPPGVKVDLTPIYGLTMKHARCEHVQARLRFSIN
# Cytochrome P450 3A4 = Cytochrome P450 3A4 (Homo sapiens, UniProt P08684);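 also: CYP3A4 tested as one member of a cytochrome P450 panel screen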
# Sequence of Cytochrome P450 3A4 (P08684 whole entry): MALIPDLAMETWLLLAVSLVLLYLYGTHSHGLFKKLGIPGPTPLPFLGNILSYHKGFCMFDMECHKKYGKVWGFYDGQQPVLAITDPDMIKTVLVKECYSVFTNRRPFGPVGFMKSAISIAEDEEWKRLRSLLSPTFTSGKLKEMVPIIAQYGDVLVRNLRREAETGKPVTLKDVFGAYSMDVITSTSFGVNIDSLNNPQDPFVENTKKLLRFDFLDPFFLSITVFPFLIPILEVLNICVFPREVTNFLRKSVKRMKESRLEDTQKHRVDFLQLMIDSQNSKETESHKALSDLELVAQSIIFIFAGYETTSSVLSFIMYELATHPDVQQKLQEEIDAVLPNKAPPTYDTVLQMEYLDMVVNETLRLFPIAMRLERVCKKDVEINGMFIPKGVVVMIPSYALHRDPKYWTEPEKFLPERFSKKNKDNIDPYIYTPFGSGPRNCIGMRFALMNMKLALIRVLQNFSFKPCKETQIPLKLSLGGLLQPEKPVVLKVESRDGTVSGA
# Sequence of Induced myeloid leukemia cell differentiation protein Mcl-1 (Q07820 whole entry): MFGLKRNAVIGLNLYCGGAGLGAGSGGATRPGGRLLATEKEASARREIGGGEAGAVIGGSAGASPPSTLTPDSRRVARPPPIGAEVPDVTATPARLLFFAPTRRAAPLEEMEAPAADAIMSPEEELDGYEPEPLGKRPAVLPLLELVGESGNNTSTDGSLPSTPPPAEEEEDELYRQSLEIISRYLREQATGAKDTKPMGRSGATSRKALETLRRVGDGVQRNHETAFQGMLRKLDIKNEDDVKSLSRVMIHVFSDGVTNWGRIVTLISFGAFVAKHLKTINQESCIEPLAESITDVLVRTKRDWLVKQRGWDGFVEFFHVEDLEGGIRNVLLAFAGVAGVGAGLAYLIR
# Sequence of Cytochrome P450 2C9 (P11712 whole entry): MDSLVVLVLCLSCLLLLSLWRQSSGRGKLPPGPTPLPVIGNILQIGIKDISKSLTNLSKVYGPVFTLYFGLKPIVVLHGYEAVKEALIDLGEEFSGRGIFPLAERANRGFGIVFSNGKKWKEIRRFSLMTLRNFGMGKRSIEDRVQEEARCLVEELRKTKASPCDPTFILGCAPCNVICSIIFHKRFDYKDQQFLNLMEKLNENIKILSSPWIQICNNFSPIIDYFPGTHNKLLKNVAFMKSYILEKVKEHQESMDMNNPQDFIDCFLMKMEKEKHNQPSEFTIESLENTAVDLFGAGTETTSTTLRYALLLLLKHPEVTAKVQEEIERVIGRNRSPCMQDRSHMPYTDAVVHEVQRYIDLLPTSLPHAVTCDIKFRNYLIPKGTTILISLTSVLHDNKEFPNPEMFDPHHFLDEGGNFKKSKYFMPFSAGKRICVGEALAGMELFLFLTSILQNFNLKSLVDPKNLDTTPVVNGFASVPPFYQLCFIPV
# Sequence of Cytochrome P450 2D6 (P10635 whole entry): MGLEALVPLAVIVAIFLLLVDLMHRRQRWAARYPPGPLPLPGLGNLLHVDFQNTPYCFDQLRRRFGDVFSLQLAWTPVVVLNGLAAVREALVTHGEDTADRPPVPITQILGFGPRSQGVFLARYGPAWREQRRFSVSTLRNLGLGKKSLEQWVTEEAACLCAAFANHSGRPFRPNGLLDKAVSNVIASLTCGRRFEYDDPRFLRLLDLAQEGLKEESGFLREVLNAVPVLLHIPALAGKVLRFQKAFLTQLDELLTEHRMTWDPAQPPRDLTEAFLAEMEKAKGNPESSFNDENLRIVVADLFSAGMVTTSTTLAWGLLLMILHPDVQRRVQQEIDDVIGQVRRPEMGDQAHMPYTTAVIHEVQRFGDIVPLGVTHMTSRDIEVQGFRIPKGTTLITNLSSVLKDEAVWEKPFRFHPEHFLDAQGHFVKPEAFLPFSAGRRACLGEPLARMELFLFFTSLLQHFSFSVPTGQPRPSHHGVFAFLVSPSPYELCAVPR
# Sequence of FAD-linked sulfhydryl oxidase ALR (P55789 whole entry, the tested form may be a part): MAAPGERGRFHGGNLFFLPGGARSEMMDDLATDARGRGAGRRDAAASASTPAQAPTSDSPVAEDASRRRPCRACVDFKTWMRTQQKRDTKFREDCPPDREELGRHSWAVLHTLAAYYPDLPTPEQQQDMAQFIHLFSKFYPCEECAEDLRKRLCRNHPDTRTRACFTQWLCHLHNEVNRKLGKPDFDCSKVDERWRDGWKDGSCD
# Sequence of Cytochrome P450 2C19 (P33261 whole entry): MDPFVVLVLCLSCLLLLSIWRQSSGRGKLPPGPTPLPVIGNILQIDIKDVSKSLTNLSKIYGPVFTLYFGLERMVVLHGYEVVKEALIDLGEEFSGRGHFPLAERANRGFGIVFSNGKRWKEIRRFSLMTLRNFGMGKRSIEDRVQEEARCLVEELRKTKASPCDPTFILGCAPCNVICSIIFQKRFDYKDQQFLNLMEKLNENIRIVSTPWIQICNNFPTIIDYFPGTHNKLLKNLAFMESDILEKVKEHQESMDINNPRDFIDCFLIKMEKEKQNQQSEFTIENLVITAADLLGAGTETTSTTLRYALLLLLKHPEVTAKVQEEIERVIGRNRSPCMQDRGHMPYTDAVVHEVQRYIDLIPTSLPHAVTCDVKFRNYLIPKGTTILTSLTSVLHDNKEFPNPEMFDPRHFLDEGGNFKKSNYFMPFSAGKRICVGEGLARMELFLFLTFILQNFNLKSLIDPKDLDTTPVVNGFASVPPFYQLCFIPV
# Sequence of Fatty acid synthase (P49327 whole entry): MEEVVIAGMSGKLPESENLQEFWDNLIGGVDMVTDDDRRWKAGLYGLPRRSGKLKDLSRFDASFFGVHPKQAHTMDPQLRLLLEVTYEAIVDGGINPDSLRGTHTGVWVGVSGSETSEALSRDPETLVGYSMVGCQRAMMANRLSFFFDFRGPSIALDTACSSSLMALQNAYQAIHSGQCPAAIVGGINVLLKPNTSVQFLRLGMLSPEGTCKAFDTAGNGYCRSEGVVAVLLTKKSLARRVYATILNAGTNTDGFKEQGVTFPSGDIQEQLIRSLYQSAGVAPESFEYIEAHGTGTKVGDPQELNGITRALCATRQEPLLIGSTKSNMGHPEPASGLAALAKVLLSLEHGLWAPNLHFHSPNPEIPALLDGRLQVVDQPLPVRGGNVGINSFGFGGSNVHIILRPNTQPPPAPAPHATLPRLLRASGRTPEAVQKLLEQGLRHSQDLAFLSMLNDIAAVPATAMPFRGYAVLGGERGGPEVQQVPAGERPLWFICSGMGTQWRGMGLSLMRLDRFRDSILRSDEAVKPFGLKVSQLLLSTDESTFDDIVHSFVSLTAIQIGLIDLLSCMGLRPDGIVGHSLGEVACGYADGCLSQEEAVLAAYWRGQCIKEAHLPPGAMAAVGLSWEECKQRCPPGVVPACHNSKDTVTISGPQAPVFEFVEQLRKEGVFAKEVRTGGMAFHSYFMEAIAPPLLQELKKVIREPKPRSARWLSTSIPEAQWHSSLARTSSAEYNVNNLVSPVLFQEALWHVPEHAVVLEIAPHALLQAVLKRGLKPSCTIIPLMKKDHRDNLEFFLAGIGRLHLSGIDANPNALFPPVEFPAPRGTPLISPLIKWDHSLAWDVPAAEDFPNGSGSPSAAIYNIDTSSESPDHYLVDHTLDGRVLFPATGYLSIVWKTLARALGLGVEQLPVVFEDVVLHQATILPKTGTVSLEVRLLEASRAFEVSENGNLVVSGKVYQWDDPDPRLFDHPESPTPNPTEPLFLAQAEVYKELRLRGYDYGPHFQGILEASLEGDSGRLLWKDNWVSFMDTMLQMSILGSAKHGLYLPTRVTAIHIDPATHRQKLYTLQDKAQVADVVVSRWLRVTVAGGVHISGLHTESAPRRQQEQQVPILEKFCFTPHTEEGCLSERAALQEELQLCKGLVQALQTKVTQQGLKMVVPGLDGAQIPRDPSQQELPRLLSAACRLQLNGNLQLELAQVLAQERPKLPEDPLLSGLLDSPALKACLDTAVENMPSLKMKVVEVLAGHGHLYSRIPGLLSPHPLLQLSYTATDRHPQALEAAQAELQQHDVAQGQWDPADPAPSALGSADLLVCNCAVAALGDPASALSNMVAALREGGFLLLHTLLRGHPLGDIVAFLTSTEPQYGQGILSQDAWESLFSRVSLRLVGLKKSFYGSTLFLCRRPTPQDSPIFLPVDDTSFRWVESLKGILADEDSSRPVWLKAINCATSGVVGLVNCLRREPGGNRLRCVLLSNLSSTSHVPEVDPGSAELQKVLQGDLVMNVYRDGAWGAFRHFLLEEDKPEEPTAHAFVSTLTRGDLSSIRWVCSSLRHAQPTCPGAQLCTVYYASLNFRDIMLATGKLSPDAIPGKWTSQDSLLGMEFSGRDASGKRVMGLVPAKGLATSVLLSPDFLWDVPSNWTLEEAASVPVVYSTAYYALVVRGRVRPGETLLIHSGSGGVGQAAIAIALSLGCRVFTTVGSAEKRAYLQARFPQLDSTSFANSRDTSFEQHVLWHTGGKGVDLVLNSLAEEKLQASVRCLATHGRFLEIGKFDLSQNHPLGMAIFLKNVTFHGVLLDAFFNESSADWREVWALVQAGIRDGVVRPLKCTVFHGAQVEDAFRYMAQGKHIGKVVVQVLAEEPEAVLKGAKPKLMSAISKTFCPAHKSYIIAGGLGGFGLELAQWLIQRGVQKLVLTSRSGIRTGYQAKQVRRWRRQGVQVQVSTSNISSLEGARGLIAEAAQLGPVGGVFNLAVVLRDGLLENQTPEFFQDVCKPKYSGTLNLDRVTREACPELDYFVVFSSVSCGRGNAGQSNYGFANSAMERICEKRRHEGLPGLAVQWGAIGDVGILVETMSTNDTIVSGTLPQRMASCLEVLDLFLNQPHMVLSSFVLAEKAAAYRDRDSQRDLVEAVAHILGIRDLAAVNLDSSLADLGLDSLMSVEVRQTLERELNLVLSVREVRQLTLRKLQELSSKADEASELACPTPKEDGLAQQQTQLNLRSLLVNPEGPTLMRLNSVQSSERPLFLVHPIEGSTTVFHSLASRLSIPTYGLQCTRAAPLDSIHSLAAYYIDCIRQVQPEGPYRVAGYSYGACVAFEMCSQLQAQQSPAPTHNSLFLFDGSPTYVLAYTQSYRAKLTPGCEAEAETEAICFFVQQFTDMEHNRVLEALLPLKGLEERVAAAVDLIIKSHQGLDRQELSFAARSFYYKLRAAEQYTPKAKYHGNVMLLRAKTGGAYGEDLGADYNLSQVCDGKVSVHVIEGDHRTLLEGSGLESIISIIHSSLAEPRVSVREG
smiles,measurement,setting,value
COc1cccc(NC(=O)NNC(=O)CCc2ccc(O)c(O)c2)c1,AC50,[1],3.12 µM (active)
Cn1c(C(=O)NCCCN2CCN(c3ccccc3F)CC2)cc2c(O)nc3ccccc3c21,AC50,[2],2.82 µM (active)
same,AC50,[3],10.3 µM (active)
same,AC50,[4],24.5 µM (active)
same,AC50,[5],8.93 µM (active)
O=C(Nc1cc(Cl)cc(Cl)c1)C(c1ccccc1)N1CCCCC1 (stereo not given),AC50,[2],3.35 µM (active)
same,AC50,[3],8.47 µM (active)
same,AC50,[4],7.36 µM (active)
C1=C(c2ccco2)N2CCN=C2S1,AC50,[1],2.33 µM (active)
COC(=O)Cc1ccc(O)c(N)c1,AC50,[1],21.6 µM (active)
CCN(CC(=O)NCc1cccs1)S(=O)(=O)c1ccc([N+](=O)[O-])cc1,IC50,Fatty acid synthase,17.7 µM (active)
C[C@@H]1NC(=O)[C@H](CCCN=C(N)N)NC(=O)c2cc([N+](=O)[O-])cc(I)c2NCCC[C@@H](C(N)=O)NC1=O,AC50,[6],12.3 µM (active)
Sc1[nH]cnc2c3cc(Cl)ccc3nc1-2,AC50,[2],3.37 µM (active)
same,AC50,[4],2.35 µM (active)
COc1cc(COCC(O)CN2CCN(CCN3C(=O)c4cccc5cccc(c45)C3=O)CC2)cc(OC)c1OC (stereo not given),EC50,[7],59.2 µM (active)
same,AC50,[6],3.54 µM (active)
O=C(O)CCc1ccc(-c2ccccc2)n1NC(=O)c1sc2ccccc2c1Cl,AC50,[1],1.72 µM (active)
Cc1ccc(/C=C2\SC(=S)N(Cc3ccccc3)C2=O)o1,IC50,[8],3.76 µM (not active)
O=C(Nc1ccc2[nH]c(-c3ccc4[nH]cnc4c3)nc2c1)c1cccs1,EC50,[9],> 150 µM (not active)
same,EC50,Streptokinase A,> 150 µM (not active)
same,IC50,[8],7.21 µM (active)
same,EC50,Streptococcus,48.4 µM (inconclusive)
COc1ccc(C2N(S(=O)(=O)c3ccc(C)cc3)CCN2S(=O)(=O)c2ccc(C)cc2)cc1,AC50,[2],3.05 µM (active)
same,AC50,[3],0.715 µM (active)
same,AC50,[4],6.47 µM (active)
same,AC50,[5],4.68 µM (active)
CCOc1ccc(NC(=O)N(CCN2CCOCC2)Cc2ccc3c(c2)CCCN3CC)cc1,IC50,[8],0.852 µM (active)
CCC(C)[C@H]1CN=C(S)N1CCc1cc(C(F)(F)F)cc(C(F)(F)F)c1 (stereo not given in full),AC50,[10],21.6 µM (active)
COc1ccc(C2CC(c3cccc(F)c3)=NN2c2ccc(S(N)(=O)=O)cc2)cc1 (stereo not given),CC50,Vero,> 25 µM (active)
COc1ccc(CCNC(=O)CCC(=O)N2CCOc3ccc(Cl)cc32)cc1OC,AC50,[10],> 70 µM (inactive)
O=C(O)c1ccc(C=C(c2nc3ccccc3s2)c2nc3ccccc3s2)cc1,AC50,[11],4.53 µM (active)
same,CC50,Vero,> 25 µM (active)
Cc1nn(C(=O)CN2C(=O)c3ccccc3C2=O)c(C)c1Br,AC50,Cytochrome P450 2C19,4.47 µM (inconclusive)
same,AC50,Cytochrome P450 2D6,7.08 µM (inconclusive)
same,AC50,Cytochrome P450 2C9,inconclusive
Cc1ccc(-c2nnn(CC(=O)N(CC3CCCO3)C(C(=O)NC3CCCCC3)c3ccc(F)cc3)n2)o1 (stereo not given),AC50,[2],0.79 µM (active)
same,AC50,[3],2.45 µM (active)
same,AC50,[4],1.27 µM (active)
same,AC50,[5],2.56 µM (active)
CN(C)CCNC(=O)c1cccc(-c2cnc3c(NC=O)cc(-c4cc(F)c(F)c(F)c4)cn23)c1,AC50,[6],7.21 µM (active)
Nc1c(C(=O)Nc2ccc(Br)cc2)sc2nc(N3CCOCC3)c3c(c12)CCCC3,CC50,Vero,> 25 µM (active)
O=C(NCC(F)(F)F)[C@@H]1c2ccccc2C(=O)N(CC23CC4CC(CC(C4)C2)C3)[C@H]1c1ccc(CO)cc1,AC50,[2],0.304 µM (active)
same,AC50,[5],2.43 µM (active)
CN1CC[C@@H]2CN[C@H](c3ccccc3Br)C[C@@H]21,AC50,[6],4.58 µM (active)
CC(C)CC#Cc1ccc2c(c1)O[C@@H](CN(C)S(=O)(=O)c1ccc(F)cc1)[C@@H](C)CN([C@H](C)CO)S2(=O)=O,AC50,[2],19.6 µM (active)
same,AC50,[3],10.1 µM (active)
same,AC50,[5],10.2 µM (active)
C[N+](C)(C)CC(=O)N/N=C/c1c2ccccc2cc2ccccc12,AC50,[6],4.16 µM (active)
Oc1cccc2c(O)nccc12,IC50,H9c2,31.3 µM (inactive)
same,AC50,Cytochrome P450 1A2,15.8 µM (inconclusive)
same,AC50,Cytochrome P450 3A4,25.1 µM (inconclusive)
same,AC50,Cytochrome P450 2C9,inconclusive
O=S(=O)(c1cccc2c(Cl)cccc12)N1CCCNCC1,AC50,Cytochrome P450 2D6,39.8 µM (inconclusive) and 25.1 µM (inconclusive)
same,AC50,Cytochrome P450 1A2,15.8 µM (inconclusive) and 31.6 µM (inconclusive)
same,AC50,Cytochrome P450 2C9,inconclusive

# — ChEMBL document CHEMBL1201862, “PubChem BioAssay data set” (2004)
